Laboratory results from patent publication US7993638B2, “Cancer treatment combining lymphodepleting agent with CTLs and cytokines” (Janssen Pharmaceutica NV, priority 2006, dated 2011).

What was measured:
[1] = tested on: class I and melanoma-associated antigen expression; assay: Study 2: IHC stains of serial biopsy samples after 5-day course of IFN-alpha; format: in vivo, human; details: 10 MU/m^2 s.c., five day course; serial biopsies of a single patient
Text: Interferon-alpha (IFN-α) has a broad spectrum of immunomodulatory and antiproliferative effects in a variety of malignancies. It is believed that one mechanism of action of IFN-α is the upregulation of tumor antigen expression on melanoma cells. It has the ability to enhance the expression of immunologically important molecules on the surface of the tumor. These include the MHC antigens, accessory molecules, as well as tumor-associated antigens.^25-27 These immunomodulatory effects may improve the activity of the immune system, including both antibodies and lymphocytes, to recognize and attack tumor cells in vivo. […] It is believed that these two modalities of immunotherapy may act synergistically. […] The same 5-day course in clinical study was included in Study 3.

lymphocytes [2] = details: […] s.c., 5 consecutive days (total 0.7 mg/kg), hairy cell leukemia patients; cited from earlier work
[3] = subcutaneous versus IV; cited from earlier work
lymphocytes [4] = details: cited from earlier work
[5] = 0.07 mg/kg/day x 5 days monthly for 6 months, cited from earlier work
[6] = administered for 4 monthly courses

Molecule | upregulation of class I and melanoma-associated antigen expression (IHC) [1] | safety (lymphocytes [2]) | pharmacokinetic and therapeutic results of subcutaneous route [3] | lymphopenia (lymphocytes [4]; MS patients) | time at which lymphocyte levels begin to recover (lymphocytes [4]; [6]) [months] | time to lymphocyte nadir (lymphocytes [4]; [6]) [months] | haematological toxicity ([5]; cumulative 2.1 mg/kg) | patients with mild segmental herpes zoster ([5]; 27 patients in drug arm, one case on placebo)
IFN-α | sufficient to upregulate both class I and melanoma-associated antigen expression |  |  |  |  |  |  | 
Nc1nc(Cl)nc2c1ncn2[C@H]1C[C@H](O)[C@@H](CO)O1 [cladribine, 2-chloro-2′deoxy-β-D-adenosine] |  | safe | entirely equivalent to the IV route | observed in all patients | ≤ 6 | 5 | no individual cases of significant thrombocytopenia, anemia granulocytopenia or generalized marrow suppression | two
